From US7368477B2, “Benzofuranyl alkanamine derivatives and uses thereof” (Wyeth, priority 2005, dated 2008)

Biological target: T1, human 5-hydroxytryptamine-2C (h5-HT2C) receptor (Homo sapiens, UniProt P28335)
T1 construct: expressed in transfected cells; host or cells: CHO (Chinese Hamster Ovary) cells; membrane preparation
T1 sequence (P28335 33-458): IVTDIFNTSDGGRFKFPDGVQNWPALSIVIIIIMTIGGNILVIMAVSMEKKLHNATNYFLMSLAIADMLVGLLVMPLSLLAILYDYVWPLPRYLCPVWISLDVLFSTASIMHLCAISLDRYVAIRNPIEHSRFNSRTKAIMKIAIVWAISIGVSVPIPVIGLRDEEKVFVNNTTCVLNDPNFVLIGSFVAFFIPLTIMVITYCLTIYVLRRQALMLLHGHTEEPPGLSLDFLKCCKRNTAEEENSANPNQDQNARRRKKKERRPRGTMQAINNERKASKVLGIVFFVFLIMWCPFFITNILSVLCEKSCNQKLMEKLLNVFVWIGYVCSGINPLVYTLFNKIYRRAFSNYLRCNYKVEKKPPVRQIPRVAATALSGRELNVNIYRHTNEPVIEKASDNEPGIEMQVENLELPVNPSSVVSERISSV
Test: [125I]DOI binding to membranes of CHO cells expressing the human 5-HT2C receptor
Settings: read-out: 5-HT2C Binding Ki avg
In the case of `I.NCc1cc2cc(Cl)cc(-c3ccccc3)c2o1` [Compound 1, [(5-chloro-7-phenyl-1-benzofuran-2-yl)methyl]amine], the Ki is reported as 10 to 100 nM. `NCc1cc2cc(Cl)cc(-c3ccccc3F)c2o1` [Compound 2, {[5-chloro-7-(2-fluorophenyl)-1-benzofuran-2-yl]methyl}amine] gave a Ki of 1 to 10 nM. For `COc1ccccc1-c1cc(Cl)cc2cc(CN)oc12` [Compound 5, {[5-chloro-7-(2-methoxyphenyl)-1-benzofuran-2-yl]methyl}amine], the Ki was 1 to 10 nM. With `NCc1cc2cc(Cl)cc(-c3ccccc3C(F)(F)F)c2o1` [Compound 6, ({5-chloro-7-[2-(trifluoro methyl)phenyl]-1-benzofuran-2-yl}methyl)amine] the Ki was 10 to 100 nM. Work on `NCc1cc2cc(F)cc(-c3c(Cl)cccc3Cl)c2o1` [Compound 7, {[7-(2,6-dichlorophenyl)-5-fluoro-1-benzofuran-2-yl]methyl}amine] yielded a Ki of 0.01 to 1 nM. With `Cc1ccccc1-c1cc(F)cc2cc(CN)oc12` [Compound 8, {[5-fluoro-7-(2-methylphenyl)-1-benzofuran-2-yl]methyl}amine] the Ki was 1 to 10 nM. For `NCc1cc2cc(F)cc(-c3ccc(Cl)cc3Cl)c2o1` [Compound 9, {[7-(2,4-dichlorophenyl)-5-fluoro-1-benzofuran-2-yl]methyl}amine], the Ki was 0.01 to 1 nM. `COc1ccccc1-c1cc(F)cc2cc(CN)oc12` [Compound 10, 1-[5-fluoro-7-(2-methoxyphenyl)-1-benzofuran-2-yl]methanamine] gave a Ki of 1 to 10 nM. In the case of `NCc1cc2cc(F)cc(-c3cc(Cl)ccc3Cl)c2o1` [Compound 11, 1-[7-(2,5-dichlorophenyl)-5-fluoro-1-benzofuran-2-yl]methanamine], the Ki is reported as 0.01 to 1 nM. Work on `Cc1ccccc1-c1cccc2cc(CN)oc12` [Compound 12, 1-[7-(2-methylphenyl)-1-benzofuran-2-yl]methanamine] yielded a Ki of 1 to 10 nM. Compound `Cc1cc(Cl)ccc1-c1cc(F)cc2cc(CN)oc12` [Compound 13, 1-[7-(4-chloro-2-methylphenyl)-5-fluoro-1-benzofuran-2-yl]methanamine] has a Ki of 1 to 10 nM. `Cc1ccc(Cl)cc1-c1cc(F)cc2cc(CN)oc12` [Compound 14, 1-[7-(5-chloro-2-methylphenyl)-5-fluoro-1-benzofuran-2-yl]methanamine] gave a Ki of 1 to 10 nM. `NCc1cc2cccc(-c3c(Cl)cccc3Cl)c2o1` [Compound 15, 1-[7-(2,6-dichlorophenyl)-1-benzofuran-2-yl]methanamine] gave a Ki of 0.01 to 1 nM. For `NCc1cc2ccc(Cl)c(-c3ccccc3Cl)c2o1` [Compound 16, 1-[6-chloro-7-(2-chlorophenyl)-1-benzofuran-2-yl]methanamine], the Ki was 0.01 to 1 nM.

Same assay, conditions: reference compounds; [125I]DOI displacement, h5-HT2C CHO membranes; read-out: Ki (95% confidence interval)
In the case of `CSc1ccc2c(c1)C(N1CCN(C)CC1)Cc1ccccc1S2` (stereo not shown) [Methiothepin, reference compound], the Ki is reported as 4.6 nM.

Same assay, conditions: saturation binding with increasing concentrations of [125I]DOI; read-out: dissociation constant, KD
For `COc1cc(CC(C)N)c(OC)cc1I` (stereo not shown) [[^125I] DOI, reference compound], the Kd was 0.4 nM.

Biological target: T2, human 5-HT2C receptor (Homo sapiens, UniProt P28335)
T2 sequence (P28335 33-458): T1 sequence (P28335 33-458)
Test: Calcium mobilization (FLIPR) in CHO cells stably expressing the human 5-HT2C receptor
Format: cell-based
Settings: CHO; read-out: 5-HT2C Function EMax (%)
Work on `I.NCc1cc2cc(Cl)cc(-c3ccccc3)c2o1` [Compound 1, [(5-chloro-7-phenyl-1-benzofuran-2-yl)methyl]amine] yielded an Emax of 70%. With `NCc1cc2cc(Cl)cc(-c3ccccc3F)c2o1` [Compound 2, {[5-chloro-7-(2-fluorophenyl)-1-benzofuran-2-yl]methyl}amine] the Emax was 80%. For `NCc1cc2cc(Cl)cc(-c3ccccc3Cl)c2o1` [Compound 3, {[5-chloro-7-(2-chlorophenyl)-1-benzofuran-2-yl]methyl}amine], the Emax was 100%. `Cc1ccccc1-c1cc(Cl)cc2cc(CN)oc12` [Compound 4, {[5-chloro-7-(2-methylphenyl)-1-benzofuran-2-yl]methyl}amine] showed an Emax of 90%. Work on `COc1ccccc1-c1cc(Cl)cc2cc(CN)oc12` [Compound 5, {[5-chloro-7-(2-methoxyphenyl)-1-benzofuran-2-yl]methyl}amine] yielded an Emax of 90%. With `NCc1cc2cc(Cl)cc(-c3ccccc3C(F)(F)F)c2o1` [Compound 6, ({5-chloro-7-[2-(trifluoro methyl)phenyl]-1-benzofuran-2-yl}methyl)amine] the Emax was 90%. With `NCc1cc2cc(F)cc(-c3c(Cl)cccc3Cl)c2o1` [Compound 7, {[7-(2,6-dichlorophenyl)-5-fluoro-1-benzofuran-2-yl]methyl}amine] the Emax was 100%. Compound `Cc1ccccc1-c1cc(F)cc2cc(CN)oc12` [Compound 8, {[5-fluoro-7-(2-methylphenyl)-1-benzofuran-2-yl]methyl}amine] has an Emax of 90%. `NCc1cc2cc(F)cc(-c3ccc(Cl)cc3Cl)c2o1` [Compound 9, {[7-(2,4-dichlorophenyl)-5-fluoro-1-benzofuran-2-yl]methyl}amine] showed an Emax of 90%. Work on `COc1ccccc1-c1cc(F)cc2cc(CN)oc12` [Compound 10, 1-[5-fluoro-7-(2-methoxyphenyl)-1-benzofuran-2-yl]methanamine] yielded an Emax of 80%. Work on `NCc1cc2cc(F)cc(-c3cc(Cl)ccc3Cl)c2o1` [Compound 11, 1-[7-(2,5-dichlorophenyl)-5-fluoro-1-benzofuran-2-yl]methanamine] yielded an Emax of 70%. In the case of `Cc1ccccc1-c1cccc2cc(CN)oc12` [Compound 12, 1-[7-(2-methylphenyl)-1-benzofuran-2-yl]methanamine], the Emax is reported as 70%. `Cc1cc(Cl)ccc1-c1cc(F)cc2cc(CN)oc12` [Compound 13, 1-[7-(4-chloro-2-methylphenyl)-5-fluoro-1-benzofuran-2-yl]methanamine] showed an Emax of 80%. In the case of `Cc1ccc(Cl)cc1-c1cc(F)cc2cc(CN)oc12` [Compound 14, 1-[7-(5-chloro-2-methylphenyl)-5-fluoro-1-benzofuran-2-yl]methanamine], the Emax is reported as 80%. Work on `NCc1cc2cccc(-c3c(Cl)cccc3Cl)c2o1` [Compound 15, 1-[7-(2,6-dichlorophenyl)-1-benzofuran-2-yl]methanamine] yielded an Emax of 90%. In the case of `NCc1cc2ccc(Cl)c(-c3ccccc3Cl)c2o1` [Compound 16, 1-[6-chloro-7-(2-chlorophenyl)-1-benzofuran-2-yl]methanamine], the Emax is reported as 90%.

Same assay, conditions: calcium mobilization, h5-HT2C CHO cells; read-out: 5-HT2C Function EC50
`I.NCc1cc2cc(Cl)cc(-c3ccccc3)c2o1` [Compound 1, [(5-chloro-7-phenyl-1-benzofuran-2-yl)methyl]amine] gave an EC50 of 200 to 2000 nM. Work on `NCc1cc2cc(Cl)cc(-c3ccccc3F)c2o1` [Compound 2, {[5-chloro-7-(2-fluorophenyl)-1-benzofuran-2-yl]methyl}amine] yielded an EC50 of 200 to 2000 nM. With `NCc1cc2cc(Cl)cc(-c3ccccc3Cl)c2o1` [Compound 3, {[5-chloro-7-(2-chlorophenyl)-1-benzofuran-2-yl]methyl}amine] the EC50 was < 10 nM. With `Cc1ccccc1-c1cc(Cl)cc2cc(CN)oc12` [Compound 4, {[5-chloro-7-(2-methylphenyl)-1-benzofuran-2-yl]methyl}amine] the EC50 was 10 to 200 nM. For `COc1ccccc1-c1cc(Cl)cc2cc(CN)oc12` [Compound 5, {[5-chloro-7-(2-methoxyphenyl)-1-benzofuran-2-yl]methyl}amine], the EC50 was 10 to 200 nM. Work on `NCc1cc2cc(Cl)cc(-c3ccccc3C(F)(F)F)c2o1` [Compound 6, ({5-chloro-7-[2-(trifluoro methyl)phenyl]-1-benzofuran-2-yl}methyl)amine] yielded an EC50 of 200 to 2000 nM. For `NCc1cc2cc(F)cc(-c3c(Cl)cccc3Cl)c2o1` [Compound 7, {[7-(2,6-dichlorophenyl)-5-fluoro-1-benzofuran-2-yl]methyl}amine], the EC50 was < 10 nM. For `Cc1ccccc1-c1cc(F)cc2cc(CN)oc12` [Compound 8, {[5-fluoro-7-(2-methylphenyl)-1-benzofuran-2-yl]methyl}amine], the EC50 was < 10 nM. In the case of `NCc1cc2cc(F)cc(-c3ccc(Cl)cc3Cl)c2o1` [Compound 9, {[7-(2,4-dichlorophenyl)-5-fluoro-1-benzofuran-2-yl]methyl}amine], the EC50 is reported as < 10 nM. Compound `COc1ccccc1-c1cc(F)cc2cc(CN)oc12` [Compound 10, 1-[5-fluoro-7-(2-methoxyphenyl)-1-benzofuran-2-yl]methanamine] has an EC50 of 10 to 200 nM. In the case of `NCc1cc2cc(F)cc(-c3cc(Cl)ccc3Cl)c2o1` [Compound 11, 1-[7-(2,5-dichlorophenyl)-5-fluoro-1-benzofuran-2-yl]methanamine], the EC50 is reported as < 10 nM. With `Cc1ccccc1-c1cccc2cc(CN)oc12` [Compound 12, 1-[7-(2-methylphenyl)-1-benzofuran-2-yl]methanamine] the EC50 was < 10 nM. `Cc1cc(Cl)ccc1-c1cc(F)cc2cc(CN)oc12` [Compound 13, 1-[7-(4-chloro-2-methylphenyl)-5-fluoro-1-benzofuran-2-yl]methanamine] gave an EC50 of 10 to 200 nM. With `Cc1ccc(Cl)cc1-c1cc(F)cc2cc(CN)oc12` [Compound 14, 1-[7-(5-chloro-2-methylphenyl)-5-fluoro-1-benzofuran-2-yl]methanamine] the EC50 was 10 to 200 nM. For `NCc1cc2cccc(-c3c(Cl)cccc3Cl)c2o1` [Compound 15, 1-[7-(2,6-dichlorophenyl)-1-benzofuran-2-yl]methanamine], the EC50 was < 10 nM. With `NCc1cc2ccc(Cl)c(-c3ccccc3Cl)c2o1` [Compound 16, 1-[6-chloro-7-(2-chlorophenyl)-1-benzofuran-2-yl]methanamine] the EC50 was < 10 nM.

System: not given
Test: not given
Settings: not given
With `I.NCc1cc2cc(Cl)cc(-c3ccccc3)c2o1` [Compound 1, [(5-chloro-7-phenyl-1-benzofuran-2-yl)methyl]amine] the melting point was > 225 °C. In the case of `NCc1cc2cc(Cl)cc(-c3ccccc3C(F)(F)F)c2o1` [Compound 6, ({5-chloro-7-[2-(trifluoro methyl)phenyl]-1-benzofuran-2-yl}methyl)amine], the melting point is reported as 215 to 218 °C (dec.). In the case of `COc1ccccc1-c1cc(F)cc2cc(CN)oc12` [Compound 10, 1-[5-fluoro-7-(2-methoxyphenyl)-1-benzofuran-2-yl]methanamine], the melting point is reported as 128 to 130 °C. With `NCc1cc2cc(F)cc(-c3cc(Cl)ccc3Cl)c2o1` [Compound 11, 1-[7-(2,5-dichlorophenyl)-5-fluoro-1-benzofuran-2-yl]methanamine] the melting point was 245 to 247 °C. Work on `Cc1ccccc1-c1cccc2cc(CN)oc12` [Compound 12, 1-[7-(2-methylphenyl)-1-benzofuran-2-yl]methanamine] yielded a melting point of 222 to 224 °C. Compound `Cc1cc(Cl)ccc1-c1cc(F)cc2cc(CN)oc12` [Compound 13, 1-[7-(4-chloro-2-methylphenyl)-5-fluoro-1-benzofuran-2-yl]methanamine] has a melting point of 172 to 174 °C. Work on `Cc1ccc(Cl)cc1-c1cc(F)cc2cc(CN)oc12` [Compound 14, 1-[7-(5-chloro-2-methylphenyl)-5-fluoro-1-benzofuran-2-yl]methanamine] yielded a melting point of 208 to 210 °C. `NCc1cc2cccc(-c3c(Cl)cccc3Cl)c2o1` [Compound 15, 1-[7-(2,6-dichlorophenyl)-1-benzofuran-2-yl]methanamine] gave a melting point of 260 to 262 °C. `NCc1cc2ccc(Cl)c(-c3ccccc3Cl)c2o1` [Compound 16, 1-[6-chloro-7-(2-chlorophenyl)-1-benzofuran-2-yl]methanamine] gave a melting point of 208 to 210 °C. In the case of `NCc1cc2ccc(F)c(-c3ccccc3Cl)c2o1` [Compound 17, 1-[7-(2-chlorophenyl)-6-fluoro-1-benzofuran-2-yl]methanamine], the melting point is reported as > 250 °C.
